In patent US20250136619A1, “HETEROBIFUNCTIONAL COMPOUNDS AND THEIR USE IN TREATING DISEASE” (HALDA THERAPEUTICS OPCO, INC., priority 2021, published 2025):
pKd: −log10 of the molar value. Where two headings read alike, the source gives them in different places.

Columns and labels:
HEK293 cells = assay: Cellular growth inhibition assay (CellTiter-Glo), HEK293 cells; format: cell-based; conditions: read-out: CTG HEK293 GI50
Summary of the method: (§1)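 HeLa or HEK293 cells in DMEM with 10% FBS exposed to titrated compound for three days at 37 °C, 5% CO2, 24 h after seeding. Viability by CellTiter-Glo 2.0 luminescence, normalized to DMSO Day 0 and Day 3 readings; four-parameter fit gives GI50.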

HeLa cells = assay: Cellular growth inhibition assay (CellTiter-Glo), HeLa cells; format: cell-based; conditions: read-out: CTG HELA GI50
Summary of the method: as §1

CDK9 = CDK9 (Homo sapiens (Human), UniProt P50750); assay: KdELECT assay for binding affinity to CDK9
Sequence of CDK9 (P50750 whole entry): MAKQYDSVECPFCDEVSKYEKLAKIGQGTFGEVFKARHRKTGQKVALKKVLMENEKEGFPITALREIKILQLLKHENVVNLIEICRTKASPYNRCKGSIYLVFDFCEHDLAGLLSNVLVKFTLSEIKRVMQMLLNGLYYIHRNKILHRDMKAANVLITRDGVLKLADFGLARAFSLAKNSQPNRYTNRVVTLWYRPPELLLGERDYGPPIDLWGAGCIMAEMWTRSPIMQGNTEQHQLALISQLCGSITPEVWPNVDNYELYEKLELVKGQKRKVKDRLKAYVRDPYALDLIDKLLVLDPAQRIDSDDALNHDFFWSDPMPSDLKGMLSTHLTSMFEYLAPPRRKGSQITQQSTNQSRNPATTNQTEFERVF
Method: (§2) Compounds were tested using a KdELECT. Kinase-tagged T7 phage strains were prepared in an E. coli host derived from the BL21 strain. E. coli were grown to log-phase and infected with T7 phage and incubated with shaking at 32° C. until lysis. The lysates were centrifuged and filtered to remove cell debris. The remaining kinases were produced in HEK-293 cells and subsequently tagged with DNA for qPCR detection. Streptavidin-coated magnetic beads were treated with biotinylated small molecule ligands for 30 minutes at room temperature to generate affinity resins for kinase assays. The liganded beads were blocked with excess biotin and washed with blocking buffer (SeaBlock (Pierce), 1% BSA, 0.05% Tween 20, 1 mM DTT) to remove unbound ligand and to reduce non-specific binding. Binding reactions were assembled by combining kinases, liganded affinity beads, and test compounds in 1×binding buffer (20% SeaBlock, 0.17×PBS, 0.05% Tween 20, 6 mM DTT). Test compounds were prepared as 111X stocks in 100% DMSO. Kd values were determined using an 11-point 3-fold compound dilution series with three DMSO control points. All compounds for Kd measurements are distributed by acoustic transfer (non-contact dispensing) in 100% DMSO. The compounds were then diluted directly into the assays such that the final concentration of DMSO was 0.9%. All reactions performed in polypropylene 384-well plate. Each was a final volume of 0.02 mL. The assay plates were incubated at room temperature with shaking for 1 hour and the affinity beads were washed with wash buffer (1×PBS, 0.05% Tween 20). The beads were then re-suspended in elution buffer (1×PBS, 0.05% Tween 20, 0.5 μM nonbiotinylated affinity ligand) and incubated at room temperature with shaking for 30 minutes. The kinase concentration in the eluates was measured by qPCR.

BTK = BTK (Homo sapiens (Human), UniProt Q06187); assay: KdELECT assay for binding affinity to BTK
Sequence of BTK (Q06187 whole entry): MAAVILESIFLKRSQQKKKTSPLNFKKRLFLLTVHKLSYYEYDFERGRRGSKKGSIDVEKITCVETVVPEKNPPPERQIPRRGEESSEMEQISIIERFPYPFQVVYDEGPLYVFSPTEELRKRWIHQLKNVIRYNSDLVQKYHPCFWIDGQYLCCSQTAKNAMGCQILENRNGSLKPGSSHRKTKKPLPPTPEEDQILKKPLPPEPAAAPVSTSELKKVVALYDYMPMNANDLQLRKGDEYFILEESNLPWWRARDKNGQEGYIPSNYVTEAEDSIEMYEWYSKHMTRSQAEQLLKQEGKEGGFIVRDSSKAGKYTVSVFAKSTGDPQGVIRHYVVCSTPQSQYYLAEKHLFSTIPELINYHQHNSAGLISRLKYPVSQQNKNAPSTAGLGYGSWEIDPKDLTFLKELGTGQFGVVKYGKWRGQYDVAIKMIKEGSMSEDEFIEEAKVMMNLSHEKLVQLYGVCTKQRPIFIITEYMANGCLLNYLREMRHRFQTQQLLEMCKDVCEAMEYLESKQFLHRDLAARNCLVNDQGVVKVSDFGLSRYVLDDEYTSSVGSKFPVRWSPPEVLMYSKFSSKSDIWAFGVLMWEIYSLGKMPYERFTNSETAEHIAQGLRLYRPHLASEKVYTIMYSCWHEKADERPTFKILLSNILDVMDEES
Method: as §2, with “KdELECT assay.” for “KdELECT.”, “1× binding” for “1×binding”

[1] = Homo sapiens, 72 h, HEK293 cells, three days of compound treatment, CellTiter-Glo 2.0
[2] = Homo sapiens, 72 h, HeLa cells, three days of compound treatment, CellTiter-Glo 2.0
[3] = HEK293 cells, three days of compound treatment, CellTiter-Glo 2.0
[4] = HeLa cells, three days of compound treatment, CellTiter-Glo 2.0

CCc1cnn2c(NCc3ccc(OCCOCCOCCOCCOCC(=O)N4CC(=O)N(c5cc(C#N)ccn5)[C@H](C(=O)N(c5cc(F)cc(F)c5)C(C(=O)NC5CC(F)(F)C5)c5ccccc5Cl)C4)nc3)cc(N3CCCC[C@H]3CCO)nc12 (stereo partly drawn) [Compound I-98, (2S)—N-[1-(2-chlorophenyl)-2-[(3,3-difluorocyclobutyl)amino]-2-oxo-ethyl]-1-(4-cyano-2-pyridyl)-N-(3,5-difluorophenyl)-4-[2-[2-[2-[2-[2-[[5-[[[3-ethyl-5-[(2S)-2-(2-hydroxyethyl)-1-piperidyl]pyrazolo[1,5-a]pyrimidin-7-yl]amino]methyl]-2-pyridyl]oxy]ethoxy]ethoxy]ethoxy]ethoxy]acetyl]-6-oxo-piperazine-2-carboxamide] showed a GI50 (HEK293 cells; [1]) of under 500 nM, a GI50 (HeLa cells; [2]) of under 500 nM and a pKd (CDK9) of 6.30 to 7.30.
CCc1cnn2c(NCc3ccc(OCCCN4CCN(CCCN(C)C/C=C/C(=O)N5CCC[C@@H](n6nc(-c7ccc(Oc8ccccc8)cc7)c7c(N)ncnc76)C5)CC4)nc3)cc(N3CCCC[C@H]3CCO)nc12 [Compound I-69] was tested, and the GI50 (HEK293 cells; [3]) was under 500 nM, the GI50 (HeLa cells; [4]) was under 500 nM and the pKd (BTK) was over 7.30. The pKd (CDK9) was over 7.30.
Cc1c(NC(=O)c2ccc(C3CC3)cc2F)cc(F)cc1-c1ncnc(N)c1OCCN(C)C(=O)/C=C/CN1CCC(OCCOCCOCCNS(=O)(=O)c2ccc(Nc3ncc(Br)c(Nc4cccc(F)c4C(N)=O)n3)cc2)CC1 [Compound I-80, 2-[[2-[4-[2-[2-[2-[[1-[(E)-4-[2-[4-amino-6-[3-[(4-cyclopropyl-2-fluoro-benzoyl)amino]-5-fluoro-2-methyl-phenyl]pyrimidin-5-yl]oxyethyl-methyl-amino]-4-oxo-but-2-enyl]-4-piperidyl]oxy]ethoxy]ethoxy]ethylsulfamoyl]anilino]-5-bromo-pyrimidin-4-yl]amino]-6-fluoro-benzamide] was tested, and the pKd (BTK) was over 7.30 and the pKd (CDK9) was 6.30 to 7.30.
CCc1cnn2c(NCc3ccc(OCCCN4CCN(CCCN(C)C/C=C/C(=O)N(C)CCOc5c(N)ncnc5-c5cc(F)cc(NC(=O)c6ccc(C7CC7)cc6F)c5C)CC4)nc3)cc(N3CCCC[C@H]3CCO)nc12 [Compound I-81, N-[3-[6-amino-5-[2-[[(E)-4-[3-[4-[3-[5-[[[3-ethyl-5-[(2S)-2-(2-hydroxyethyl)-1-piperidyl]pyrazolo[1,5-a]pyrimidin-7-yl]aminomethyl]-2-pyridyl]oxy]propyl]piperazin-1-yl]propyl-methyl-amino]but-2-enoyl]-methyl-amino]ethoxy]pyrimidin-4-yl]-5-fluoro-2-methyl-phenyl]-4-cyclopropyl-2-fluoro-benzamide] was tested, and the GI50 (HEK293 cells; [3]) was under 500 nM, the GI50 (HeLa cells; [4]) was under 500 nM and the pKd (BTK) was over 7.30. The pKd (CDK9) was over 7.30.
In the case of CCc1cnn2c(NCc3ccc(OCCOCCOCCOCCOCCOC/C=C/C(=O)N4CCC[C@@H](n5nc(-c6ccc(Oc7ccccc7)cc6)c6c(N)ncnc65)C4)nc3)cc(N3CCCC[C@H]3CCO)nc12 [Compound I-42], the GI50 (HEK293 cells; [1]) was 500 to 1500 nM, the GI50 (HeLa cells; [2]) was under 500 nM and the pKd (BTK) was over 7.30. It also gave a pKd (CDK9) of 6.30 to 7.30.
CCc1cnn2c(NCc3ccc(OCCOCCOCCNS(=O)(=O)c4cc(F)cc(N(C(=O)[C@@H]5CCC(=O)N5c5cc(C#N)ccn5)C(C(=O)NC5CC(F)(F)C5)c5ccccc5Cl)c4)nc3)cc(N3CCCC[C@H]3CCO)nc12 (some centres unmarked) [Compound I-92] showed a GI50 (HEK293 cells; [3]) of under 500 nM, a GI50 (HeLa cells; [4]) of under 500 nM and a pKd (CDK9) of 5.60 to 6.30.
CCc1cnn2c(NCc3ccc(CCOCCOCCN(C)C/C=C/C(=O)N4CCC[C@@H](n5nc(-c6ccc(Oc7ccccc7)cc6)c6c(N)ncnc65)C4)nc3)cc(N3CCCC[C@H]3CCO)nc12 [Compound I-67, (E)-1-((R)-3-(4-amino-3-(4-phenoxyphenyl)-1H-pyrazolo[3,4-d]pyrimidin-1-yl)piperidin-1-yl)-4-((2-(2-(2-(5-(((3-ethyl-5-((S)-2-(2-hydroxyethyl)piperidin-1-yl)pyrazolo[1,5-a]pyrimidin-7-yl)amino)methyl)pyridin-2-yl)ethoxy)ethoxy)ethyl)(methyl)amino)but-2-en-1-one] gave a pKd (BTK) of over 7.30 and a pKd (CDK9) of over 7.30.
For CCc1cnn2c(NCc3ccc(OCCOCCOCCOCCOCCN(C)C/C=C/C(=O)N(C)CCOc4c(N)ncnc4-c4cc(F)cc(NC(=O)c5ccc(C6CC6)cc5F)c4C)nc3)cc(N3CCCC[C@H]3CCO)nc12 [Compound I-77], the pKd (BTK) was 5.60 to 6.30 and the pKd (CDK9) was 6.30 to 7.30.
CCc1cnn2c(NCc3ccc(OCC(=O)N4CC(=O)N(c5cc(C#N)ccn5)[C@H](C(=O)N(c5cc(F)cc(F)c5)[C@H](C(=O)NC5CC(F)(F)C5)c5ccccc5Cl)C4)nc3)cc(N3CCCC[C@H]3CCO)nc12 [Compound I-96, (2S)—N-[(1S)-1-(2-chlorophenyl)-2-[(3,3-difluorocyclobutyl)amino]-2-oxo-ethyl]-1-(4-cyano-2-pyridyl)-N-(3,5-difluorophenyl)-4-[2-[[5-[[[3-ethyl-5-[(2S)-2-(2-hydroxyethyl)-1-piperidyl]pyrazolo[1,5-a]pyrimidin-7-yl]amino]methyl]-2-pyridyl]oxy]acetyl]-6-oxo-piperazine-2-carboxamide] showed a GI50 (HEK293 cells; [1]) of under 500 nM, a GI50 (HeLa cells; [2]) of under 500 nM and a pKd (CDK9) of 6.30 to 7.30.
CCc1cnn2c(NCc3ccc(=O)n(CCOCCOCCNS(=O)(=O)c4cc(F)cc(N(C(=O)[C@@H]5CCC(=O)N5c5cc(C#N)ccn5)C(C(=O)NC5CC(F)(F)C5)c5ccccc5Cl)c4)c3)cc(N3CCCC[C@H]3CCO)nc12 (stereo partly drawn) [Compound I-93, (2S)—N-[1-(2-chlorophenyl)-2-[(3,3-difluorocyclobutyl)amino]-2-oxo-ethyl]-1-(4-cyano-2-pyridyl)-N-[3-[2-[2-[2-[5-[ [[3-ethyl-5-[(2S)-2-(2-hydroxyethyl)-1-piperidyl]pyrazolo[1,5-a]pyrimidin-7-yl]amino]methyl]-2-oxo-1-pyridyl]ethoxy]ethoxy]ethylsulfamoyl]-5-fluoro-phenyl]-5-oxo-pyrrolidine-2-carboxamide] was tested, and the GI50 (HEK293 cells; [1]) was over 5000 nM, the GI50 (HeLa cells; [2]) was 1500 to 5000 nM and the pKd (CDK9) was 5.60 to 6.30.
For NC(=O)c1c(F)cccc1Nc1nc(Nc2ccc(S(=O)(=O)NCCOCCOCCOC3CCN(C/C=C/C(=O)N4CCC[C@@H](n5nc(-c6ccc(Oc7ccccc7)cc6)c6c(N)ncnc65)C4)CC3)cc2)ncc1Br [Compound I-68, 2-[[2-[4-[2-[2-[2-[[1-[(E)-4-[(3R)-3-[4-amino-3-(4-phenoxyphenyl)pyrazolo[3,4-d]pyrimidin-1-yl]-1-piperidyl]-4-oxo-but-2-enyl]-4-piperidyl]oxy]ethoxy]ethoxy]ethylsulfamoyl]anilino]-5-bromo-pyrimidin-4-yl]amino]-6-fluoro-benzamide], the pKd (BTK) was over 7.30 and the pKd (CDK9) was 5.60 to 6.30.
In the case of CCc1cnn2c(NCc3ccc(OCCOCCOCC(=O)N4CC(=O)N(c5cc(C#N)ccn5)[C@H](C(=O)N(c5cc(F)cc(F)c5)[C@H](C(=O)NC5CC(F)(F)C5)c5ccccc5Cl)C4)nc3)cc(N3CCCC[C@H]3CCO)nc12 [Compound I-97, (2S)—N-[(1S)-1-(2-chlorophenyl)-2-[(3,3-difluorocyclobutyl)amino]-2-oxo-ethyl]-1-(4-cyano-2-pyridyl)-N-(3,5-difluorophenyl)-4-[2-[2-[2-[[5-[[[3-ethyl-5-[(2S)-2-(2-hydroxyethyl)-1-piperidyl]pyrazolo[1,5-a]pyrimidin-7-yl]amino]methyl]-2-pyridyl]oxy]ethoxy]ethoxy]acetyl]-6-oxo-piperazine-2-carboxamide], the GI50 (HEK293 cells; Homo sapiens, HEK293, 72 h) was under 500 nM, the GI50 (HeLa cells; Homo sapiens, HeLa, 72 h) was under 500 nM and the pKd (CDK9) was 6.30 to 7.30.
